≈ marks a conversion by molar mass, not a printed value. Some results are limits rather than exact numbers.

The record followed here is paper PMC3117668 (ACS medicinal chemistry letters, 2011).

One assay relates to H37Rv-TB. Kind of assay: MIC re-screen in the presence of 4% BSA and 10% FBS. The assay is classed as cell-based, Mycobacterium tuberculosis. The following applies: ATP and MABA readouts.
The test system of another assay is H37Rv TB. Description: Whole cell MIC against H37Rv. It is filed as cell-based. The following applies: Mycobacterium tuberculosis.
The next assay relates to M. bovis BCG. Kind of assay: microbe, parasite or virus in culture. The assay is classed as cell-based. To be noted: Mycobacterium tuberculosis variant bovis BCG, read-out: MIC90 M. bovis BCG.

With `COc1cccc(CNC(=O)c2c(C)nc3ncc(C)cn23)c1` [Compound 10], the MIC shift entry in the assay with H37Rv-TB is “less than two fold”. The same measure, in the same setting: with `Cc1ccn2c(C(=O)NCc3ccccc3)c(C)nc2c1` [Compound 1] the entry was “less than two fold”. With `CCOC(=O)c1c(C)nc2cc(C)ccn12` [ethyl 2,7-dimethylimidazo[1,2-a]pyridine-3-carboxylate], the MIC (as a rule, the lowest concentration found to suppress growth) against H37Rv TB was roughly 65 µM (≈ 14.2 µg/mL). As to `Cc1ccn2c(C(=O)NCc3cccc(F)c3)c(C)nc2c1` [Compound 8], in the assay with H37Rv TB, the MIC is roughly 0.3 µM (≈ 0.0892 µg/mL). Turning to `CO[C@H]1/C=C/O[C@@]2(C)Oc3c(C)c(O)c4c(O)c(c(/C=N/N5CCN(C)CC5)c(O)c4c3C2=O)NC(=O)/C(C)=C\C=C\[C@H](C)[C@H](O)[C@@H](C)[C@@H](O)[C@@H](C)[C@H](OC(C)=O)[C@@H]1C` [RMP, Rifampicin], the MIC90 with M. bovis BCG is less than 0.78 µM.

The compound `Cc1ccn2c(C(=O)NCc3ccc(Cl)c(Cl)c3)c(C)nc2c1` [Compound 7] showed an MIC against H37Rv TB of 9 to 14 µM (≈ 3.13 to 4.88 µg/mL).
